Measured values reported in PMC11596972, “Synthesis and Antimicrobial Activity of 3-Alkylidene-2-Indolone Derivatives” (Molecules, 2024).
Values after ≈ are worked out from the molar mass of the structure shown. Where two headings read alike, the source gives them in different places.

Key:
S. aureus 4220 = test: MIC, double dilution method, S. aureus 4220; assay type: cell-based; conditions: Staphylococcus aureus, 4220, 24 h
S. aureus ATCC 6538 = test: MIC, double dilution method, S. aureus ATCC 6538; assay type: cell-based; conditions: Staphylococcus aureus, ATCC6538, 24 h
MRSA ATCC 43300 = test: MIC, double dilution method, MRSA ATCC 43300; assay type: cell-based, Methicillin-resistant Staphylococcus aureus; conditions: Staphylococcus aureus, 24 h, MRSA ATCC 43300, Gram-positive, 24 h culture
P. aeruginosa CMCC 10211 = test: MIC, double dilution method, P. aeruginosa CMCC 10211; assay type: cell-based; conditions: Pseudomonas aeruginosa
E. coli ATCC 25922 = test: MIC, double dilution method, E. coli ATCC 25922; assay type: cell-based; conditions: Escherichia coli
E. coli 1924 = test: MIC, double dilution method, E. coli 1924; assay type: cell-based, Escherichia coli
C. albicans CMCC 98001 = test: MIC, double dilution method, C. albicans CMCC 98001; assay type: cell-based, Candida albicans; conditions: for MIC: C. albicans CMCC 98001, fungus, 24 h culture; for antifungal activity (class in words): C. albicans CMCC 98001
[1] = S. aureus 4220, Gram-positive, 24 h culture, read-out: MIC
[2] = S. aureus ATCC 6538, Gram-positive, 24 h culture, read-out: MIC
[3] = CMCC10211, P. aeruginosa CMCC 10211, Gram-negative, 24 h culture, read-out: MIC
[4] = ATCC25922, E. coli ATCC 25922, Gram-negative, 24 h culture, read-out: MIC
[5] = Escherichia coli, E. coli 1924, Gram-negative, 24 h culture, read-out: MIC
[6] = Candida albicans, CMCC98001, 24 h, read-out: MIC

SMILES | MIC (S. aureus 4220; [1]) | MIC (S. aureus ATCC 6538; [2]) | MIC (MRSA ATCC 43300; read-out: MIC) | MIC (P. aeruginosa CMCC 10211; [3]) | MIC (E. coli ATCC 25922; [4]) | MIC (E. coli 1924; [5]) | MIC (C. albicans CMCC 98001; [6]) | MIC (S. aureus 4220) | MIC (S. aureus ATCC 6538) | MIC (MRSA ATCC 43300) | MIC (P. aeruginosa CMCC 10211; CMCC10211, 24 h) | MIC (E. coli ATCC 25922; ATCC25922, 24 h) | MIC (E. coli 1924; Escherichia coli, 1924, 24 h) | MIC (C. albicans CMCC 98001; Candida albicans, CMCC98001, 24 h) | antifungal activity (class in words) (C. albicans CMCC 98001) | MIC (C. albicans CMCC 98001)
CCN1C(=O)/C(=C(/C)O)c2ccccc21 [Compound 5t, (Z)-1-ethyl-3-(1-hydroxyethylidene) indolin-2-one] | > 64 µg/mL | 64 µg/mL (≈ 315 µM) | > 64 µg/mL | > 64 µg/mL | > 64 µg/mL | 32 µg/mL (≈ 157 µM) | 32 µg/mL (≈ 157 µM) | – | – | – | – | – | – | – | – | –
C/C(O)=C1/C(=O)N(C)c2ccc(F)cc21 [Compound 5g, (Z)-5-fluoro-3-(1-hydroxyethylidene)-1-methylindolin-2-one] | > 64 µg/mL | 64 µg/mL (≈ 309 µM) | > 64 µg/mL | > 64 µg/mL | > 64 µg/mL | 64 µg/mL (≈ 309 µM) | 32 µg/mL (≈ 154 µM) | – | – | – | – | – | – | – | – | –
CN1C(=O)/C(=C(\O)c2ccc(Br)cc2)c2ccccc21 [Compound 10i, (Z)-3-((4-bromophenyl)(hydroxy)methylene)-1-methylindolin-2-one] | – | – | – | – | – | – | – | 16 µg/mL (≈ 48.5 µM) | 2 µg/mL (≈ 6.06 µM) | 16 µg/mL (≈ 48.5 µM) | > 64 µg/mL | > 64 µg/mL | 8 µg/mL (≈ 24.2 µM) | > 64 µg/mL | – | –
C/C(O)=C1/C(=O)N(C)c2c(Br)cccc21 [Compound 5l, (Z)-7-bromo-3-(1-hydroxyethylidene)-1-methylindolin-2-one] | 32 µg/mL (≈ 119 µM) | 64 µg/mL (≈ 239 µM) | 64 µg/mL (≈ 239 µM) | > 64 µg/mL | > 64 µg/mL | 8 µg/mL (≈ 29.8 µM) | 64 µg/mL (≈ 239 µM) | – | – | – | – | – | – | – | – | –
C/C(O)=C1/C(=O)N(C)c2ccc(C)cc21 [Compound 5d, (Z)-3-(1-hydroxyethylidene)-1,5-dimethylindolin-2-one] | – | 64 µg/mL (≈ 315 µM) | > 64 µg/mL | 64 µg/mL (≈ 315 µM) | > 64 µg/mL | 2 µg/mL (≈ 9.84 µM) | – | – | – | – | – | – | – | – | moderate antifungal activity | –
COc1ccc2c(c1)/C(=C(\C)O)C(=O)N2Cc1ccccc1 [Compound 5s, (Z)-1-benzyl-3-(1-hydroxyethylidene)-5-methoxyindolin-2-one] | 32 µg/mL (≈ 108 µM) | 64 µg/mL (≈ 217 µM) | 64 µg/mL (≈ 217 µM) | > 64 µg/mL | > 64 µg/mL | 16 µg/mL (≈ 54.2 µM) | > 64 µg/mL | – | – | – | – | – | – | – | – | –
C/C(O)=C1/C(=O)N(C)c2ccc(C#N)cc21 [Compound 5p, (Z)-3-(1-hydroxyethylidene)-1-methyl-2-oxoindoline-5-carbonitrile] | 64 µg/mL (≈ 299 µM) | 64 µg/mL (≈ 299 µM) | > 64 µg/mL | > 64 µg/mL | > 64 µg/mL | > 64 µg/mL | > 64 µg/mL | – | – | – | – | – | – | – | – | –
C/C(O)=C1/C(=O)N(C)c2cc(F)ccc21 [Compound 5f, (Z)-6-fluoro-3-(1-hydroxyethylidene)-1-methylindolin-2-one] | > 64 µg/mL | > 64 µg/mL | > 64 µg/mL | > 64 µg/mL | > 64 µg/mL | 32 µg/mL (≈ 154 µM) | 64 µg/mL (≈ 309 µM) | – | – | – | – | – | – | – | – | –
OC(Cn1cncn1)(Cn1cncn1)c1ccc(F)cc1F [Flu, Fluconazole, reference compound] | > 64 µg/mL | > 64 µg/mL | > 64 µg/mL | > 64 µg/mL | > 64 µg/mL | > 64 µg/mL | 2 µg/mL (≈ 6.53 µM) | – | – | – | – | – | – | – | – | –
C/C(O)=C1/C(=O)N(C)c2cccc(F)c21 [Compound 5h, (Z)-4-fluoro-3-(1-hydroxyethylidene)-1-methylindolin-2-one] | 64 µg/mL (≈ 309 µM) | > 64 µg/mL | > 64 µg/mL | > 64 µg/mL | > 64 µg/mL | 32 µg/mL (≈ 154 µM) | 8 to 16 µg/mL (≈ 38.6 to 77.2 µM) | – | – | – | – | – | – | – | moderate antifungal activity | 16 µg/mL (≈ 77.2 µM)
C/C(O)=C1/C(=O)N(C)c2ccc(Br)cc21 [Compound 5n, (Z)-5-bromo-3-(1-hydroxyethylidene)-1-methylindolin-2-one] | 32 µg/mL (≈ 119 µM) | 32 µg/mL (≈ 119 µM) | > 64 µg/mL | > 64 µg/mL | > 64 µg/mL | 8 µg/mL (≈ 29.8 µM) | 64 µg/mL (≈ 239 µM) | – | – | – | – | – | – | – | – | –
COc1cccc2c1N(C)C(=O)/C2=C(/C)O [Compound 5o, (Z)-3-(1-hydroxyethylidene)-7-methoxy-1-methylindolin-2-one] | > 64 µg/mL | > 64 µg/mL | 64 µg/mL (≈ 292 µM) | 64 µg/mL (≈ 292 µM) | > 64 µg/mL | 16 µg/mL (≈ 73 µM) | 32 µg/mL (≈ 146 µM) | – | – | – | – | – | – | – | – | –
C/C(O)=C1/C(=O)N(Cc2ccccc2)c2ccccc21 [Compound 5u, (Z)-1-benzyl-3-(1-hydroxyethylidene)indolin-2-one] | – | – | 64 µg/mL (≈ 241 µM) | > 64 µg/mL | 64 µg/mL (≈ 241 µM) | 2 µg/mL (≈ 7.54 µM) | 32 µg/mL (≈ 121 µM) | – | – | – | – | – | – | – | – | –
C/C(O)=C1/C(=O)N(C)c2ccc(C(F)(F)F)cc21 [Compound 5q, (Z)-3-(1-hydroxyethylidene)-1-methyl-5-(trifluoromethyl)indolin-2-one] | 64 µg/mL (≈ 249 µM) | – | > 64 µg/mL | > 64 µg/mL | > 64 µg/mL | 16 µg/mL (≈ 62.2 µM) | > 64 µg/mL | – | – | – | – | – | – | – | – | –
